Laboratory results from US20250059139A1, “COMPOUNDS FOR TREATMENT OF CANCER” (THE JOHNS HOPKINS UNIVERSITY, priority 2021, published 2025).

How the values were obtained:
thymus = assay: AHR agonist induced thymus regression in FVB male mice; format: in vivo, mouse; settings: mouse, in vivo, po, 30 mg/kg/day
Procedure: To evaluate AHR agonist induced thymus regression, groups of five 4-week old FVB male mice from Jackson Laboratory were treated with either vehicle, Linomide, TasQ, or its analogs daily by orally gavage for 2 weeks and then the thymus removed and weighted.
Oral Drug treatment. TasQ at the indicated dose was initially dissolved with equal molar 1 N sodium hydroxide. This solution was diluted with sterile water and the mixture stirred for 1 hr. The pH was then adjusted with 1 N HCl to 8.9 and 200 μL given daily via oral gavage.
This means that in the clinical setting, dose-escalation above 1 mg/d of TasQ as needed to reach this >2 μM blood level for optimal anti-cancer efficacy will also enhance unwanted off-target AHR induction. Therefore, a medicinal chemical approach was undertaken to identify third generation quinoline-3-carboxamide analogs with increased HDAC4 inhibition, but with reduced AHR agonism. The approach taken is based upon the earlier SPR analysis documenting that TasQ linked to the surface chip via its aniline-N is a potent binder of HDAC4. Thus, a series of quinoline-3-carboxamide analogs were synthesized focusing upon adduct changes at the aniline-N. These analogs were synthesized as described in Example 1, and were initially screened for their AHR agonist activity using the in vitro human cell-based ARE-driven luciferase reporter gene assay (Table 3).

[1] = tested on: CWR-22Rv1 parental wild type cells; assay: In vivo growth of CWR-22Rv1 parental wild type xenografts; set-up: species or system human; settings: daily oral 10 mg/kg/d
Excerpt: (§1) Prostate Cancer Models. The source, history, and characteristics of the human prostate cancer cell lines and PDXs used, as well as cell culture conditions for their in vitro maintenance and the in vivo protocol for xenograft growth in triple immune-deficient NSG (i.e. NOD.Cg-PrkdcScidIl2rgtmlWji/Szj), adult (>8 week old) male mice obtained from the Sidney Kimmel Comprehensive Cancer Center (SKCCC) Animal Core Facility are described previously (Isaacs 2013; Brennen et al. JCI Insight. 2021, 6(8):e146827; Zhu et al. Oncogene 2020, 39(45): 6935-6949). […] In vitro growth curves were determined as described (Isaacs 2013). In vivo growth response to oral daily TasQ (10 mg/kg/d) of TRAMP-C2 mouse prostate cancers was evaluated in C57BL/6J syngeneic wild type vs. NOX-2 vs. iNOS null male mice obtained from Jackson Laboratory (Bar Harbor, ME). Growth response to oral daily TasQ (10 mg/kg/d) of TRAMP-C2 and B6CaP mouse prostate cancers was also evaluated in S100A9 null C57BL′6J male mice obtained from Dmitry Gabrilovich (Wistar Institute). […] In vitro growth curves were determined as described (Isaacs 2013). Growth response to daily oral TasQ vs. ESATA-20 (both at 10 mg/kg/d) of Myc-CaP-CR mouse prostate cancer was evaluated in syngeneic FVB/NJ castrate male mice from Jackson Laboratory. […]

[2] = tested on: CWR-22Rv1 dominant-positive mutant HIF-1α cells; assay: In vivo growth of CWR-22Rv1 xenografts expressing dominant-positive mutant HIF-1α; set-up: species or system human; settings: daily oral 10 mg/kg/d
Excerpt: as §1

CYP1A1 = CYP1A1 mRNA induction in LNCaP cells (RT-PCR); format: cell-based; settings: human, read-out: EC50 as a CYP1A inducer in LNCaP cells
Excerpt: Real-time quantitative PCR (Q-PCR) analysis. […] ID NO: 2) and […] ID NO: 3). […] ID NO: 4) and […] ID NO: 5).

fl-NCoR1 = target: T1, fl-NCoR1 (Homo sapiens, UniProt O75376); assay: SPR binding of TasQ to immobilized fl-NCoR1; settings: compound in solution
T1 construct: (N-terminal FLAG-tagged; AA 1-2440); FLAG (N); purchased Abcam ab82239
T1 sequence (O75376 whole entry, the tested form may be a part): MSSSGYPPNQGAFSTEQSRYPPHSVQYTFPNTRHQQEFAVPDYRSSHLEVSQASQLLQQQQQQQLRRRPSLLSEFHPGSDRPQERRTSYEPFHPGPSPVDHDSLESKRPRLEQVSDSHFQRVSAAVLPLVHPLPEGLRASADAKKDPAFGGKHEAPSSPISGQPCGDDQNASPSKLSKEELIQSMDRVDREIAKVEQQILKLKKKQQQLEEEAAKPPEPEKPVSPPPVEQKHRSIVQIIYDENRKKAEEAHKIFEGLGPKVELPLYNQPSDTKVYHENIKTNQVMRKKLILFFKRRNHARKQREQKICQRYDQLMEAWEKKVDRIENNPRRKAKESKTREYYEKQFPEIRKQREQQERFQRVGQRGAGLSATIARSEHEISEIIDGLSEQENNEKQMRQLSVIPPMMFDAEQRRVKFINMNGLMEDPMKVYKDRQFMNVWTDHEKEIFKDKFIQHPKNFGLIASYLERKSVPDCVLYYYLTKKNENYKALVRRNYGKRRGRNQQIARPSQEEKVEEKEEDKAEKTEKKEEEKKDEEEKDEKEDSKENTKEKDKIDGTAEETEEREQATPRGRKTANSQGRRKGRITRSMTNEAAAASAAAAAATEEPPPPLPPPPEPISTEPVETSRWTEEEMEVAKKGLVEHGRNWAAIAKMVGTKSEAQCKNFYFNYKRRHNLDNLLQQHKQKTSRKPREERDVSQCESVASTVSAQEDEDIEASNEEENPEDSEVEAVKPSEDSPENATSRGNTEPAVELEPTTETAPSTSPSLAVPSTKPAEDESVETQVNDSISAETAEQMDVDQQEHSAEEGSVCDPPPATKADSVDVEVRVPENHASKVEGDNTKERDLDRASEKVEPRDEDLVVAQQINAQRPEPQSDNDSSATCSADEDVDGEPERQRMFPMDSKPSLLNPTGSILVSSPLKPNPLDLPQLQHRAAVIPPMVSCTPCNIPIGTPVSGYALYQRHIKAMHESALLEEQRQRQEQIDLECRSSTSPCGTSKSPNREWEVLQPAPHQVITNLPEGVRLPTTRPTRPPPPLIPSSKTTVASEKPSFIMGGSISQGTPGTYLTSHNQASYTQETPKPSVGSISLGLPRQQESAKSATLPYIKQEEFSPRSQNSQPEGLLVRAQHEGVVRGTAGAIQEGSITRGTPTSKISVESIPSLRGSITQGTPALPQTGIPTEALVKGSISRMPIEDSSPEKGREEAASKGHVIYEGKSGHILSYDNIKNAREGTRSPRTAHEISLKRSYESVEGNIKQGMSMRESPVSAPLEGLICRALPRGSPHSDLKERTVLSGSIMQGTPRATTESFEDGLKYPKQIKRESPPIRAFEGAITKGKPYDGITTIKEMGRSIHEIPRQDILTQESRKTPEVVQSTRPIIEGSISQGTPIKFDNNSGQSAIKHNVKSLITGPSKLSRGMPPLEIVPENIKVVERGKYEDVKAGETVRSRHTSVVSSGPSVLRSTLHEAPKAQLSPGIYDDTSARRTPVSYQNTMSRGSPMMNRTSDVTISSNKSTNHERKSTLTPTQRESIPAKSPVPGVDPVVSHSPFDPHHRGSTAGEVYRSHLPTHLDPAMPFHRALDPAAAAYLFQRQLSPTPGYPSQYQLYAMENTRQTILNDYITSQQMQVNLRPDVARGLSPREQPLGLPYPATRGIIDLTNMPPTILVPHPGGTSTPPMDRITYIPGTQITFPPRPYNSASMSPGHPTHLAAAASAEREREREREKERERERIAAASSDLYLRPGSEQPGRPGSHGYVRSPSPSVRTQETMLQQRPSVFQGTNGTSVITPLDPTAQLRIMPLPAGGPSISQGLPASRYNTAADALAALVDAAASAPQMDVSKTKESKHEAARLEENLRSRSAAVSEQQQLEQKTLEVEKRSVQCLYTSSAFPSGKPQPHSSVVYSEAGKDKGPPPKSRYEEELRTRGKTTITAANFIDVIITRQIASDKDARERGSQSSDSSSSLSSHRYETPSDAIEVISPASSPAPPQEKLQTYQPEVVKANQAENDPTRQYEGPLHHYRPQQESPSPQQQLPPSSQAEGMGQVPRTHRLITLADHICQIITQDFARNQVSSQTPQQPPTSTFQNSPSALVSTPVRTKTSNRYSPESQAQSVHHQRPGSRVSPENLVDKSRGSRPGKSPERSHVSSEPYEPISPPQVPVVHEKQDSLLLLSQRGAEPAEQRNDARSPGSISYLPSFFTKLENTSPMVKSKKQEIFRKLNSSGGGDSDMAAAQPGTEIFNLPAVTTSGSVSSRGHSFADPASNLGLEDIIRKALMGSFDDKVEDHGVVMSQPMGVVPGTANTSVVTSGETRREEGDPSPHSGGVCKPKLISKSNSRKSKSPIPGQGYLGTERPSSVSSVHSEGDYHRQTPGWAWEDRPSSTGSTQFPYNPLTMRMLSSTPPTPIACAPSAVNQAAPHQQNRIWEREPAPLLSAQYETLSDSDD
Procedure: Surface Plasmon Resonance (SPR) Binding Analysis. SPR analysis was performed on the Biacore 3000™ system using CM5 sensor chips, certified buffers (HBS-P—10 mM HEPES, 0.15 M NaCl, pH 7.4, containing 0.005% v/v Surfactant P; HBS-EP-HBS-P with 3 mM EDTA) and reagents for immobilization and surface regeneration from Biacore, GE Healthcare, Uppsala Sweden. Evaluation of sensorgrams was performed using the BIA-evaluation Software version 4.1 and GraphPad Prism 4. Buffer of protein reagents were changed to HBS-P on Zeba spin desalting columns (Thermo Scientific) prior to being used in SPR analysis (Isaacs 2013).
B. Binding of TasQ to immobilized HDAC4 and NCoR1. Different variants of HDAC4 (full-length wild-type and mutant forms and the truncated protein) and full-length NCoR1 were immobilized on a CM5 chip using random amine coupling. Briefly, proteins were dissolved in 10 mM sodium acetate buffer at pH 5.0 or 5.5 and immobilized to the aimed level using the standard protocol from GE Healthcare. Serially diluted TasQ in HBS-P buffer with 10 or 20 μM Zn was injected (for 2 or 3 min at a flow rate of 30 μl/min) either directly or after a 1st injection of 1 mM DTT to reduce cysteines in the zinc conformation site in HDAC4. Regeneration was made with a short pulse of HBS-EP.
Thus, TasQ's inhibition of HDAC4/NCoR1 formation involves only its binding to HDAC4. […]

S100A9 = S100A9 (Homo sapiens, UniProt P06702); settings: Kallberg et al. 2012; cited from earlier work
Chain of S100A9 (P06702 whole entry, species assumed): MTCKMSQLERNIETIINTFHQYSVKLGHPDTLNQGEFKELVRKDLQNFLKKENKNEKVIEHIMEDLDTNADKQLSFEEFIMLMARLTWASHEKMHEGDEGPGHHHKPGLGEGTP

Row | Structure (SMILES) | induction of thymus regression (thymus) | growth inhibition of wild type xenografts [1] | growth inhibition of dominant-positive mutant HIF-1α tumors [2] | EC50 (CYP1A1) | binding to immobilized fl-NCoR1 protein (fl-NCoR1) | affinity to S100A9 (S100A9)
1 | COc1cccc2c1c(O)c(C(=O)N(c1ccc(C(F)(F)F)cc1)C1CCCCC1)c(=O)n2C [ESATA-20] | lack of induction | – | – | – | – | –
2 | COc1cccc2c1c(O)c(C(=O)N(C)c1ccc(C(F)(F)F)cc1)c(=O)n2C [TasQ, Tasquinimod] | – | > 80% | < 25% | 1 µM | no detectable binding | nanomolar (nM) affinity
